# Source: patent US20220144815A1, “1,3,4-OXADIAZOLES AND THEIR DERIVATIVES AS NEW ANTIFUNGAL AGENTS” (Bayer Aktiengesellschaft, priority 2018, published 2022)
# Assay: Log P by HPLC on reversed phase columns, method [a] (EEC directive 79/831 Annex V.A8)
# Format: physicochemical
# Conditions: log P determined according to method [a] (HPLC on reversed phase columns)
# Experimental: Measurement of Log P values as provided herein was performed according to EEC directive 79/831 Annex V.A8 by HPLC (High Performance Liquid Chromatography) on reversed phase columns with the following methods: • ^[a] Log P value is determined by measurement of LC-UV, in an acidic range, with 0.1% formic acid in water and acetonitrile as eluent (linear gradient from 10% acetonitrile to 95% acetonitrile). • ^[b] Log P value is determined by measurement of LC-UV, in a neutral range, with 0.001 molar ammonium acetate solution in water and acetonitrile as eluent (linear gradient from 10% acetonitrile to 95% acetonitrile). • ^[c] Log P value is determined by measurement of LC-UV, in an acidic range, with 0.1% phosphoric acid and acetonitrile as eluent (linear gradient from 10% acetonitrile to 95% acetonitrile). If more than one Log P value is available within the same method, all the values are given and separated by “+”. Calibration was done with straight-chain alkan2-ones (with 3 to 16 carbon atoms) with known Log P values (measurement of Log P values using retention times with linear interpolation between successive alkanones). Lambda-max-values were determined using UV-spectra from 200 nm to 400 nm and the peak values of the chromatographic signals In table 1, the log P values were determined according to method [^a]. In table 2, the log P values were determined according to method [^a].
row,logP,Compound
1,1.59,C#CCNc1ncc(-c2nnc(C(F)F)o2)cn1 [Example I-063]
2,2.77,Fc1cccc(Nc2ncc(-c3nnc(C(F)F)o3)cn2)c1 [Example I-094]
3,2.35,COC(=O)c1ccc(-c2nnc(C(F)F)o2)cc1 [Example I-003]
4,2.77,O=C(Nc1ccc(-c2nnc(C(F)F)o2)cn1)c1ccc(F)cc1F [Example I-055]
5,2.28,CC1(C(=O)Nc2ccc(-c3nnc(C(F)F)o3)cn2)CC1 [Example I-045]
6,3.14,Cc1ccc(NC(=O)c2ccc(-c3nnc(C(F)F)o3)cn2)cc1 [Example I-048]
7,3.23,COC(=O)c1ccc(-c2nnc(C(F)(F)F)s2)cc1 [Example I-011]
8,1.87,CN(C)c1ncc(-c2nnc(C(F)F)o2)cn1 [Example I-062]
9,3.81,Fc1ccccc1C1(Nc2ccc(-c3nnc(C(F)(F)Cl)o3)cn2)CC1 [Example I-057]
10,1.23,CNc1ncc(-c2nnc(C(F)F)o2)cn1 [Example I-060]
11,2.44,FC(F)c1nnc(-c2ccc(-c3nnc(C(F)F)o3)cc2)o1 [Example I-019]
12,2.05,CN(C(=O)c1ccc(-c2nnc(C(F)F)o2)cn1)c1ccccc1 [Example I-049]
13,2.33,FC(F)c1nnc(-c2cnc(NC3(C4CC4)CC3)nc2)o1 [Example I-082]
14,2.23,FC(F)c1nnc(-c2ccc(Nc3ncccn3)cc2)o1 [Example I-013]
15,2.54,FC(F)c1nnc(-c2cnc(Nc3ccccc3)nc2)o1 [Example I-076]
16,2.70,FC(F)c1nnc(-c2cnc(C3=CCCC3)nc2)o1 [Example I-065]
17,0.11,Nc1ccc(-c2nnc(C(F)F)o2)cn1 [Example I-030]
18,3.04,FC(F)c1nnc(-c2cnc(Sc3ccccc3)nc2)o1 [Example I-092]
19,3.40,FC(F)c1nnc(-c2cnc(CC3CCCCC3)nc2)o1 [Example I-083]
20,1.90,CC1(Nc2ncc(-c3nnc(C(F)F)o3)cn2)CC1 [Example I-066]
21,2.64,FC(F)c1nnc(-c2cnc(-c3ccsc3)nc2)o1 [Example I-072]
22,0.83,O=C(O)c1ccc(-c2nnc(C(F)F)o2)cn1 [Example I-032]
23,2.57,FC(F)c1nnc(-c2cnc(NCc3ccccc3)nc2)o1 [Example I-088]
24,3.59,CCc1noc(-c2ccc(-c3nnc(C(F)(F)F)o3)cc2)n1 [Example I-018]

# Same assay, conditions: reversed phase HPLC column; Method A: LC-UV, acidic range, 0.1% formic acid in water and acetonitrile; read-out: Log P
row,chromatographic logP,Compound
1,1.23,"CCc1noc(-c2ccc(C(=O)NNC(=O)OC(C)(C)C)cc2)n1 [tert-butyl 2-[4-(3-ethyl-1,2,4-oxadiazol-5-yl)benzoyl]hydrazinecarboxylate]"

# Same assay, conditions: reversed phase HPLC column; log P determined according to method [a] (HPLC on reversed phase columns); read-out: logP
row,chromatographic logP,Compound
1,2.86,"C[C@@H](Nc1ncc(-c2nnc(C(F)F)o2)cn1)c1ccc(F)cc1 [I.125a, 5-[5-(difluoromethyl)-1,3,4-oxadiazol-2-yl]-N-[(1R)-1-(4-fluorophenyl)ethyl]pyrimidin-2-amine]"
2,2.51,"COc1ccccc1Cc1ncc(-c2nnc(C(F)F)o2)cn1 [I.107, 5-[5-(difluoromethyl)-1,3,4-oxadiazol-2-yl]-2-(2-methoxybenzyl)pyrimidine]"
3,3.5,"CCC(C)(Nc1ncc(-c2nnc(C(F)F)o2)cn1)c1ccccc1 (stereo not shown) [I.138, 5-[5-(difluoromethyl)-1,3,4-oxadiazol-2-yl]-N-(2-phenylbutan-2-yl)pyrimidin-2-amine]"
4,2.92,"FC(F)c1nnc(-c2cnc(Nc3ccccc3Cl)nc2)o1 [I.114, N-(2-chlorophenyl)-5-[5-(difluoromethyl)-1,3,4-oxadiazol-2-yl]pyrimidin-2-amine]"
5,2.95,"Fc1cccc(F)c1C1(Nc2ncc(-c3nnc(C(F)F)o3)cn2)CC1 [I.164, 5-[5-(difluoromethyl)-1,3,4-oxadiazol-2-yl]-N-[1-(2,6-difluorophenyl)cyclopropyl]pyrimidin-2-amine]"

# Same assay, conditions: reversed phase HPLC column; method [a], HPLC on reversed phase columns; read-out: logP
row,chromatographic logP,Compound
1,4.05,"CC(C)(C)c1ccc(C2(Nc3ncc(-c4nnc(C(F)F)o4)cn3)CC2)cc1 [I.242, N-[1-(4-tert-butylphenyl)cyclopropyl]-5-[5-(difluoromethyl)-1,3,4-oxadiazol-2-yl]pyrimidin-2-amine]"
2,3.25,"FC(F)c1nnc(-c2cnc(NC3(c4ccc(C(F)(F)F)cc4)CC3)nc2)o1 [I.250, 5-[5-(difluoromethyl)-1,3,4-oxadiazol-2-yl]-N-{1-[4-(trifluoromethyl)phenyl]cyclopropyl}pyrimidin-2-amine]"
3,3.21,"FC(F)Oc1ccccc1C1(Nc2ncc(-c3nnc(C(F)F)o3)cn2)CC1 [I.248, N-{1-[2-(difluoromethoxy)phenyl]cyclopropyl}-5-[5-(difluoromethyl)-1,3,4-oxadiazol-2-yl]pyrimidin-2-amine]"
4,2.95,"COc1ccccc1C(C)Nc1ncc(-c2nnc(C(F)F)o2)cn1 (racemic) [I.209, 5-[5-(difluoromethyl)-1,3,4-oxadiazol-2-yl]-N-[(1RS)-1-(2-methoxyphenyl)ethyl]pyrimidin-2-amine]"
5,2.04,"CC(Nc1ncc(-c2nnc(C(F)F)o2)cn1)c1ccc2ccccc2n1 (racemic) [I.233, 5-[5-(difluoromethyl)-1,3,4-oxadiazol-2-yl]-N-[(1RS)-1-(quinolin-2-yl)ethyl]pyrimidin-2-amine]"
6,2.68,"Cc1ccc(C(C)(CO)Nc2ncc(-c3nnc(C(F)F)o3)cn2)cc1C (racemic) [I.235, (2RS)-2-({5-[5-(difluoromethyl)-1,3,4-oxadiazol-2-yl]pyrimidin-2-yl}amino)-2-(3,4-dimethylphenyl)propan-1-ol]"
7,2.96,"O=[N+]([O-])c1cc(C2(Nc3ncc(-c4nnc(C(F)F)o4)cn3)CC2)ccc1Cl [I.259, N-[1-(4-chloro-3-nitrophenyl)cyclopropyl]-5-[5-(difluoromethyl)-1,3,4-oxadiazol-2-yl]pyrimidin-2-amine]"
8,3.71,"FC(F)c1nnc(-c2cnc(NC3(c4ccc(Cl)cc4)CCC3)nc2)o1 [I.237, N-[1-(4-chlorophenyl)cyclobutyl]-5-[5-(difluoromethyl)-1,3,4-oxadiazol-2-yl]pyrimidin-2-amine]"
9,4.05,"FC(F)c1nnc(-c2cnc(NC3(c4ccc(Cl)cc4Cl)CC3)nc2)o1 [I.255, N-[1-(2,4-dichlorophenyl)cyclopropyl]-5-[5-(difluoromethyl)-1,3,4-oxadiazol-2-yl]pyrimidin-2-amine]"
10,3.45,"CC(Nc1ncc(-c2nnc(C(F)F)o2)cn1)c1ccc2ccccc2c1 (racemic) [I.232, 5-[5-(difluoromethyl)-1,3,4-oxadiazol-2-yl]-N-[(1RS)-1-(2-naphthyl)ethyl]pyrimidin-2-amine]"
11,3.74,"FC(F)c1nnc(-c2cnc(NC3(c4cccc(Cl)c4Cl)CC3)nc2)o1 [I.253, N-[1-(2,3-dichlorophenyl)cyclopropyl]-5-[5-(difluoromethyl)-1,3,4-oxadiazol-2-yl]pyrimidin-2-amine]"
12,3.59,"O=C(c1ccc(F)cc1F)N(C(=O)c1ccc(F)cc1F)c1ncc(-c2nnc(C(F)F)o2)cn1 [I.185, N-(2,4-difluorobenzoyl)-N-{5-[5-(difluoromethyl)-1,3,4-oxadiazol-2-yl]pyrimidin-2-yl}-2,4-difluorobenzamide]"
13,3.59,"Fc1cc(C(F)(F)F)ccc1C1(Nc2ncc(-c3nnc(C(F)F)o3)cn2)CC1 [I.263, 5-[5-(difluoromethyl)-1,3,4-oxadiazol-2-yl]-N-{1-[2-fluoro-4-(trifluoromethyl)phenyl]cyclopropyl}pyrimidin-2-amine]"
14,1.8,"CC(Nc1ncc(-c2nnc(C(F)F)o2)cn1)c1cscn1 (racemic) [I.194, 5-[5-(difluoromethyl)-1,3,4-oxadiazol-2-yl]-N-[(1RS)-1-(1,3-thiazol-4-yl)ethyl]pyrimidin-2-amine]"
15,3.37,"CC(Nc1ncc(-c2nnc(C(F)F)o2)cn1)c1cccc(C(F)(F)F)c1 (racemic) [I.239, 5-[5-(difluoromethyl)-1,3,4-oxadiazol-2-yl]-N-{(1RS)-1-[3-(trifluoromethyl)phenyl]ethyl}pyrimidin-2-amine]"
16,3.12,"CC(Cc1ccc(F)cc1)Nc1ncc(-c2nnc(C(F)F)o2)cn1 (racemic) [I.210, 5-[5-(difluoromethyl)-1,3,4-oxadiazol-2-yl]-N-[(2RS)-1-(4-fluorophenyl)propan-2-yl]pyrimidin-2-amine]"
17,3.58,"CCC(Nc1ncc(-c2nnc(C(F)F)o2)cn1)c1ccc(Cl)cc1 (racemic) [I.230, N-[(1RS)-1-(4-chlorophenyl)propyl]-5-[5-(difluoromethyl)-1,3,4-oxadiazol-2-yl]pyrimidin-2-amine]"
18,2.62,"FC(F)c1nnc(-c2cnc(NC3(c4ccccc4)CC3)nc2)o1 [I.195, 5-[5-(difluoromethyl)-1,3,4-oxadiazol-2-yl]-N-(1-phenylcyclopropyl)pyrimidin-2-amine]"
19,3.45,"FC(F)c1nnc(-c2cnc(NC3(c4cccs4)CCCC3)nc2)o1 [I.225, 5-[5-(difluoromethyl)-1,3,4-oxadiazol-2-yl]-N-[1-(2-thienyl)cyclopentyl]pyrimidin-2-amine]"
